The values that follow come from ChEMBL document CHEMBL1221220, “Transport and signaling via the amino acid binding site of the yeast Gap1 amino acid transceptor” (Nat Chem Biol, 2009).

The test system of one test is Saccharomyces cerevisiae. In words: Activation of yeast Gap1 L404 mutant-mediated amino acid uptake at 10 mM.
The subject of test [1] is T1, General amino-acid permease GAP1 (Saccharomyces cerevisiae), P19145 [I382C].
T1 sequence (whole entry): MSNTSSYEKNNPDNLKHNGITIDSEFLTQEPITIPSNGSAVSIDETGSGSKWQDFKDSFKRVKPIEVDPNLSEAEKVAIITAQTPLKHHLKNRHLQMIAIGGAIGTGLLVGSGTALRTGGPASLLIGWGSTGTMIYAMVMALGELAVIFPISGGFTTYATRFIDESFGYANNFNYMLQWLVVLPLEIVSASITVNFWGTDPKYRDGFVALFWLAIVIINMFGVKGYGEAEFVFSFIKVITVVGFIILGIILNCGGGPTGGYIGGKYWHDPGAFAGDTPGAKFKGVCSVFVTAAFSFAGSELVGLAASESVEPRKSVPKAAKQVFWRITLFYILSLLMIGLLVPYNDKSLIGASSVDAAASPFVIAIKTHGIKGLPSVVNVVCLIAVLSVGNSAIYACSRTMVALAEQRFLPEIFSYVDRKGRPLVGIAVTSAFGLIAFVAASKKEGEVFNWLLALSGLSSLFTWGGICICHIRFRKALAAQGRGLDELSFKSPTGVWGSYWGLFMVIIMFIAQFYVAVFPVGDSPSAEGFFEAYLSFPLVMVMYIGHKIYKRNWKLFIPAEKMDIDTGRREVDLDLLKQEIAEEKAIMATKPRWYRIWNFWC
The test is described as follows: Induction of yeast Gap1 I382C mutant-mediated trehalose activation at 10 mM.

Test [2] relates to T2, General amino-acid permease GAP1 (Saccharomyces cerevisiae), P19145 [V381C].
T2 sequence (whole entry): T1 sequence (whole entry) with V381C, C382I
In words: Induction of yeast Gap1 V381C mutant-mediated trehalose activation at 2 mM in presence of 10 mM MTSEA treated before compound addition.

Test [3] concerns T3, General amino-acid permease GAP1 (Saccharomyces cerevisiae), P19145 [L387C].
T3 sequence (whole entry): T1 sequence (whole entry) with C382I, L387C
In words: Induction of yeast Gap1 L387C mutant-mediated trehalose activation at 2 mM in presence of 10 mM MTSEA treated before compound addition.

The test system of test [4] is T4, General amino-acid permease GAP1 (Saccharomyces cerevisiae), P19145 [R399C].
T4 sequence (whole entry): T1 sequence (whole entry) with C382I, R399C
The test is described as follows: Induction of yeast Gap1 R399C mutant-mediated trehalose activation at 2 mM in presence of 10 mM MTSEA treated before compound addition.

For test [5], the system named is General amino-acid permease GAP1 (Saccharomyces cerevisiae), P19145 [V389C]. In words: Induction of yeast Gap1 V389C mutant-mediated amino acid uptake at 2 mM in presence of 10 mM MTSEA treated before compound addition.

Structures are written as SMILES. Residue numbers refer to the chain shown, from its start. Activity calls are given as the source filed them. The rule behind the calls is not given here.

Chain of General amino-acid permease GAP1 (Saccharomyces cerevisiae), P19145 [V389C] (P19145 whole entry V389C): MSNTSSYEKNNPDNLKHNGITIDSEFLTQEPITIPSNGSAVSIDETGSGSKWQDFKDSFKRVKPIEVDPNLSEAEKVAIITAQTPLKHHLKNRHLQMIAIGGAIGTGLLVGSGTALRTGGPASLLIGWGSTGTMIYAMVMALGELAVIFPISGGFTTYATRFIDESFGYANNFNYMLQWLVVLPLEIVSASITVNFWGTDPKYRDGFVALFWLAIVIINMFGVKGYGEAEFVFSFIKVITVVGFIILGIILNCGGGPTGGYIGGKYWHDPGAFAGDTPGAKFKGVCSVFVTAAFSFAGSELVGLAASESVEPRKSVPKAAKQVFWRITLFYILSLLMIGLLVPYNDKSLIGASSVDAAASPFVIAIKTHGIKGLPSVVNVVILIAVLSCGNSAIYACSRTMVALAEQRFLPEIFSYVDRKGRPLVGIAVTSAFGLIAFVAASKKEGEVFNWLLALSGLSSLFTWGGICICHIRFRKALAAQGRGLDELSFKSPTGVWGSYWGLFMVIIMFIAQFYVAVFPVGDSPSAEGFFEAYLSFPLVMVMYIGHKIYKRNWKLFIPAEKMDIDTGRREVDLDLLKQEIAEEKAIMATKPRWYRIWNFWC

As to `NC(=O)NCCC[C@H](N)C(=O)O`, the outcome (with Saccharomyces cerevisiae; in test [1]) was inactive. In addition, the inhibition entry in test [2], in test [3] and in test [4] was “Active” each time. The inhibition entry in test [5] was “inactive”.
